Test results: the NIST ThermoML archive (doi:10.1016/j.jct.2015.01.004)
“And” between values parts separate entries of the source, which are not always exact repeats. Equal entries are not always repeated. Numbers after ± are expanded uncertainties.

Assay: molar heat capacity at constant pressure; xn = mol fraction of the nth substance listed
Settings: 100 kPa

## [Si] [silicon] + [Li]
12.56 K, Crystal of intercomponent compound 2, relaxation calorimeter, x2 = 0.804
  molar heat capacity at constant pressure: 0.0482 ± 0.0038 J/K/mol and 0.0474 ± 0.0037 J/K/mol
13.23 K, Crystal of intercomponent compound 1, relaxation calorimetry, x2 = 0.81
  molar heat capacity at constant pressure: 0.0671 ± 0.0053 J/K/mol
13.23 K, Crystal of intercomponent compound 2, relaxation calorimeter, x2 = 0.804
  molar heat capacity at constant pressure: 0.0553 ± 0.0043 J/K/mol
13.24 K, Crystal of intercomponent compound 2, relaxation calorimeter, x2 = 0.804
  molar heat capacity at constant pressure: 0.0547 ± 0.0043 J/K/mol
13.94 K, Crystal of intercomponent compound 1, relaxation calorimetry, x2 = 0.81
  molar heat capacity at constant pressure: 0.0741 ± 0.0058 J/K/mol
13.94 K, Crystal of intercomponent compound 2, relaxation calorimeter, x2 = 0.804
  molar heat capacity at constant pressure: 0.0639 ± 0.005 J/K/mol
13.95 K, Crystal of intercomponent compound 2, relaxation calorimeter, x2 = 0.804
  molar heat capacity at constant pressure: 0.0628 ± 0.0049 J/K/mol
14.69 K, Crystal of intercomponent compound 1, relaxation calorimetry, x2 = 0.81
  molar heat capacity at constant pressure: 0.083 ± 0.0065 J/K/mol
14.69 K, Crystal of intercomponent compound 2, relaxation calorimeter, x2 = 0.804
  molar heat capacity at constant pressure: 0.0753 ± 0.0059 J/K/mol and 0.0743 ± 0.0058 J/K/mol
15 K, Crystal of intercomponent compound 1, relaxation calorimetry + DSC, x2 = 0.81
  molar heat capacity at constant pressure: 0.0895 ± 0.007 J/K/mol
15 K, Crystal of intercomponent compound 2, relaxation calorimetry + DSC, x2 = 0.804
  molar heat capacity at constant pressure: 0.0803 ± 0.007 J/K/mol
15.47 K, Crystal of intercomponent compound 1, relaxation calorimetry, x2 = 0.81
  molar heat capacity at constant pressure: 0.094 ± 0.0074 J/K/mol
15.47 K, Crystal of intercomponent compound 2, relaxation calorimeter, x2 = 0.804
  molar heat capacity at constant pressure: 0.0889 ± 0.007 J/K/mol
15.48 K, Crystal of intercomponent compound 2, relaxation calorimeter, x2 = 0.804
  molar heat capacity at constant pressure: 0.0879 ± 0.0069 J/K/mol
16.3 K, Crystal of intercomponent compound 1, relaxation calorimetry, x2 = 0.81
  molar heat capacity at constant pressure: 0.1071 ± 0.0084 J/K/mol
16.3 K, Crystal of intercomponent compound 2, relaxation calorimeter, x2 = 0.804
  molar heat capacity at constant pressure: 0.1049 ± 0.0082 J/K/mol
16.31 K, Crystal of intercomponent compound 2, relaxation calorimeter, x2 = 0.804
  molar heat capacity at constant pressure: 0.1039 ± 0.0082 J/K/mol
17.17 K, Crystal of intercomponent compound 1, relaxation calorimetry, x2 = 0.81
  molar heat capacity at constant pressure: 0.1224 ± 0.0096 J/K/mol
17.18 K, Crystal of intercomponent compound 2, relaxation calorimeter, x2 = 0.804
  molar heat capacity at constant pressure: 0.1233 ± 0.0097 J/K/mol and 0.1231 ± 0.0097 J/K/mol
18.09 K, Crystal of intercomponent compound 1, relaxation calorimetry, x2 = 0.81
  molar heat capacity at constant pressure: 0.1403 ± 0.011 J/K/mol
18.09 K, Crystal of intercomponent compound 2, relaxation calorimeter, x2 = 0.804
  molar heat capacity at constant pressure: 0.1454 ± 0.011 J/K/mol
18.1 K, Crystal of intercomponent compound 2, relaxation calorimeter, x2 = 0.804
  molar heat capacity at constant pressure: 0.1461 ± 0.011 J/K/mol
19.06 K, Crystal of intercomponent compound 1, relaxation calorimetry, x2 = 0.81
  molar heat capacity at constant pressure: 0.1618 ± 0.013 J/K/mol
19.07 K, Crystal of intercomponent compound 2, relaxation calorimeter, x2 = 0.804
  molar heat capacity at constant pressure: 0.1725 ± 0.013 J/K/mol and 0.1731 ± 0.014 J/K/mol
20 K, Crystal of intercomponent compound 1, relaxation calorimetry + DSC, x2 = 0.81
  molar heat capacity at constant pressure: 0.184 ± 0.014 J/K/mol
20 K, Crystal of intercomponent compound 2, relaxation calorimetry + DSC, x2 = 0.804
  molar heat capacity at constant pressure: 0.201 ± 0.018 J/K/mol
20.09 K, Crystal of intercomponent compound 1, relaxation calorimetry, x2 = 0.81
  molar heat capacity at constant pressure: 0.187 ± 0.008 J/K/mol
20.09 K, Crystal of intercomponent compound 2, relaxation calorimeter, x2 = 0.804
  molar heat capacity at constant pressure: 0.205 ± 0.008 J/K/mol
20.1 K, Crystal of intercomponent compound 2, relaxation calorimeter, x2 = 0.804
  molar heat capacity at constant pressure: 0.203 ± 0.008 J/K/mol
21.16 K, Crystal of intercomponent compound 1, relaxation calorimetry, x2 = 0.81
  molar heat capacity at constant pressure: 0.219 ± 0.009 J/K/mol
21.16 K, Crystal of intercomponent compound 2, relaxation calorimeter, x2 = 0.804
  molar heat capacity at constant pressure: 0.24 ± 0.01 J/K/mol
21.17 K, Crystal of intercomponent compound 2, relaxation calorimeter, x2 = 0.804
  molar heat capacity at constant pressure: 0.242 ± 0.01 J/K/mol
22.28 K, Crystal of intercomponent compound 1, relaxation calorimetry, x2 = 0.81
  molar heat capacity at constant pressure: 0.255 ± 0.01 J/K/mol
22.3 K, Crystal of intercomponent compound 2, relaxation calorimeter, x2 = 0.804
  molar heat capacity at constant pressure: 0.283 ± 0.012 J/K/mol and 0.286 ± 0.012 J/K/mol
23.49 K, Crystal of intercomponent compound 2, relaxation calorimeter, x2 = 0.804
  molar heat capacity at constant pressure: 0.333 ± 0.014 J/K/mol and 0.337 ± 0.014 J/K/mol
23.51 K, Crystal of intercomponent compound 1, relaxation calorimetry, x2 = 0.81
  molar heat capacity at constant pressure: 0.297 ± 0.012 J/K/mol
24.74 K, Crystal of intercomponent compound 1, relaxation calorimetry, x2 = 0.81
  molar heat capacity at constant pressure: 0.331 ± 0.014 J/K/mol
24.75 K, Crystal of intercomponent compound 2, relaxation calorimeter, x2 = 0.804
  molar heat capacity at constant pressure: 0.391 ± 0.016 J/K/mol and 0.396 ± 0.016 J/K/mol
25 K, Crystal of intercomponent compound 1, relaxation calorimetry + DSC, x2 = 0.81
  molar heat capacity at constant pressure: 0.347 ± 0.014 J/K/mol
25 K, Crystal of intercomponent compound 2, relaxation calorimetry + DSC, x2 = 0.804
  molar heat capacity at constant pressure: 0.403 ± 0.016 J/K/mol
26.07 K, Crystal of intercomponent compound 2, relaxation calorimeter, x2 = 0.804
  molar heat capacity at constant pressure: 0.458 ± 0.019 J/K/mol and 0.454 ± 0.019 J/K/mol
26.08 K, Crystal of intercomponent compound 1, relaxation calorimetry, x2 = 0.81
  molar heat capacity at constant pressure: 0.39 ± 0.016 J/K/mol
27.47 K, Crystal of intercomponent compound 2, relaxation calorimeter, x2 = 0.804
  molar heat capacity at constant pressure: 0.534 ± 0.022 J/K/mol
27.48 K, Crystal of intercomponent compound 1, relaxation calorimetry, x2 = 0.81
  molar heat capacity at constant pressure: 0.457 ± 0.019 J/K/mol
27.48 K, Crystal of intercomponent compound 2, relaxation calorimeter, x2 = 0.804
  molar heat capacity at constant pressure: 0.531 ± 0.022 J/K/mol
28.94 K, Crystal of intercomponent compound 2, relaxation calorimeter, x2 = 0.804
  molar heat capacity at constant pressure: 0.623 ± 0.025 J/K/mol
28.95 K, Crystal of intercomponent compound 1, relaxation calorimetry, x2 = 0.81
  molar heat capacity at constant pressure: 0.534 ± 0.022 J/K/mol
28.95 K, Crystal of intercomponent compound 2, relaxation calorimeter, x2 = 0.804
  molar heat capacity at constant pressure: 0.619 ± 0.025 J/K/mol
30 K, Crystal of intercomponent compound 1, relaxation calorimetry + DSC, x2 = 0.81
  molar heat capacity at constant pressure: 0.596 ± 0.024 J/K/mol
30 K, Crystal of intercomponent compound 2, relaxation calorimetry + DSC, x2 = 0.804
  molar heat capacity at constant pressure: 0.689 ± 0.028 J/K/mol
30.48 K, Crystal of intercomponent compound 2, relaxation calorimeter, x2 = 0.804
  molar heat capacity at constant pressure: 0.723 ± 0.03 J/K/mol
30.49 K, Crystal of intercomponent compound 1, relaxation calorimetry, x2 = 0.81
  molar heat capacity at constant pressure: 0.625 ± 0.026 J/K/mol
30.5 K, Crystal of intercomponent compound 2, relaxation calorimeter, x2 = 0.804
  molar heat capacity at constant pressure: 0.718 ± 0.029 J/K/mol
32.11 K, Crystal of intercomponent compound 2, relaxation calorimeter, x2 = 0.804
  molar heat capacity at constant pressure: 0.835 ± 0.034 J/K/mol
32.12 K, Crystal of intercomponent compound 1, relaxation calorimetry, x2 = 0.81
  molar heat capacity at constant pressure: 0.728 ± 0.03 J/K/mol
32.12 K, Crystal of intercomponent compound 2, relaxation calorimeter, x2 = 0.804
  molar heat capacity at constant pressure: 0.832 ± 0.034 J/K/mol
33.83 K, Crystal of intercomponent compound 2, relaxation calorimeter, x2 = 0.804
  molar heat capacity at constant pressure: 0.964 ± 0.039 J/K/mol
33.84 K, Crystal of intercomponent compound 1, relaxation calorimetry, x2 = 0.81
  molar heat capacity at constant pressure: 0.848 ± 0.035 J/K/mol
33.84 K, Crystal of intercomponent compound 2, relaxation calorimeter, x2 = 0.804
  molar heat capacity at constant pressure: 0.961 ± 0.039 J/K/mol
35 K, Crystal of intercomponent compound 1, relaxation calorimetry + DSC, x2 = 0.81
  molar heat capacity at constant pressure: 0.934 ± 0.038 J/K/mol
35 K, Crystal of intercomponent compound 2, relaxation calorimetry + DSC, x2 = 0.804
  molar heat capacity at constant pressure: 1.056 ± 0.043 J/K/mol
35.64 K, Crystal of intercomponent compound 2, relaxation calorimeter, x2 = 0.804
  molar heat capacity at constant pressure: 1.113 ± 0.045 J/K/mol
35.65 K, Crystal of intercomponent compound 2, relaxation calorimeter, x2 = 0.804
  molar heat capacity at constant pressure: 1.109 ± 0.045 J/K/mol
35.66 K, Crystal of intercomponent compound 1, relaxation calorimetry, x2 = 0.81
  molar heat capacity at constant pressure: 0.987 ± 0.04 J/K/mol
37.54 K, Crystal of intercomponent compound 2, relaxation calorimeter, x2 = 0.804
  molar heat capacity at constant pressure: 1.278 ± 0.052 J/K/mol
37.56 K, Crystal of intercomponent compound 1, relaxation calorimetry, x2 = 0.81
  molar heat capacity at constant pressure: 1.143 ± 0.047 J/K/mol
37.56 K, Crystal of intercomponent compound 2, relaxation calorimeter, x2 = 0.804
  molar heat capacity at constant pressure: 1.272 ± 0.052 J/K/mol
39.55 K, Crystal of intercomponent compound 2, relaxation calorimeter, x2 = 0.804
  molar heat capacity at constant pressure: 1.458 ± 0.059 J/K/mol
39.56 K, Crystal of intercomponent compound 1, relaxation calorimetry, x2 = 0.81
  molar heat capacity at constant pressure: 1.315 ± 0.054 J/K/mol
39.57 K, Crystal of intercomponent compound 2, relaxation calorimeter, x2 = 0.804
  molar heat capacity at constant pressure: 1.455 ± 0.059 J/K/mol
40 K, Crystal of intercomponent compound 1, relaxation calorimetry + DSC, x2 = 0.81
  molar heat capacity at constant pressure: 1.35 ± 0.06 J/K/mol
40 K, Crystal of intercomponent compound 2, relaxation calorimetry + DSC, x2 = 0.804
  molar heat capacity at constant pressure: 1.5 ± 0.06 J/K/mol
41.66 K, Crystal of intercomponent compound 2, relaxation calorimeter, x2 = 0.804
  molar heat capacity at constant pressure: 1.664 ± 0.068 J/K/mol
41.67 K, Crystal of intercomponent compound 1, relaxation calorimetry, x2 = 0.81
  molar heat capacity at constant pressure: 1.513 ± 0.062 J/K/mol
41.68 K, Crystal of intercomponent compound 2, relaxation calorimeter, x2 = 0.804
  molar heat capacity at constant pressure: 1.659 ± 0.068 J/K/mol
43.88 K, Crystal of intercomponent compound 1, relaxation calorimetry, x2 = 0.81
  molar heat capacity at constant pressure: 1.731 ± 0.07 J/K/mol
43.89 K, Crystal of intercomponent compound 2, relaxation calorimeter, x2 = 0.804
  molar heat capacity at constant pressure: 1.888 ± 0.077 J/K/mol
43.9 K, Crystal of intercomponent compound 2, relaxation calorimeter, x2 = 0.804
  molar heat capacity at constant pressure: 1.888 ± 0.077 J/K/mol
45 K, Crystal of intercomponent compound 1, relaxation calorimetry + DSC, x2 = 0.81
  molar heat capacity at constant pressure: 1.85 ± 0.08 J/K/mol
45 K, Crystal of intercomponent compound 2, relaxation calorimetry + DSC, x2 = 0.804
  molar heat capacity at constant pressure: 2.01 ± 0.08 J/K/mol
46.22 K, Crystal of intercomponent compound 1, relaxation calorimetry, x2 = 0.81
  molar heat capacity at constant pressure: 1.98 ± 0.081 J/K/mol
